Data as given in EP4603105A1, “PHARMACEUTICAL COMPOSITION CONTAINING CYCLIC COMPOUND HAVING SELECTIVE KRAS INHIBITORY EFFECT AGAINST HRAS AND NRAS” (CHUGAI SEIYAKU KABUSHIKI KAISHA, priority 2022, dated 2024).
Like-named read-outs stand apart in the source and are kept apart here.

Assays:
[1] = target: GDP-bound NRAS wild-type protein (Homo sapiens, UniProt P01111); assay: Binding to NRAS by surface plasmon resonance (SPR), KD and KD ratio to KRAS
In short: (§1)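 GDP-bound biotin-Avi RAS captured at ~100–300 RU, 30°C, pH 7.4 HBS containing 10 µM GDP, 10 mM MgCl2, 1 mM DTT, 0.01% Tween 20 and 4% DMSO. KD by 1:1 fitting.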

[2] = target: HRAS wild-type protein (Homo sapiens, UniProt P01112); assay: Binding to HRAS by surface plasmon resonance (SPR), KD and KD ratio to KRAS
In short: as §1

[3] = tested on: human lung cancer strain NCI-H441; assay: NCI-H441 cell proliferation inhibitory activity (CellTiter-Glo, 4 days); assay type: cell-based; conditions: read-out: NCl-H441 IC50
In short: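 Readout: […] after the ATP-based reagent. Compound: serial dilutions in dimethyl sulfoxide.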

[4] = target: GDP-bound KRAS wild-type protein (Homo sapiens, UniProt P01116); assay: Binding to KRAS by surface plasmon resonance (SPR), dissociation constant KD
In short: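 GDP-loaded biotinylated Avi-tag RAS proteins (E. coli-expressed) captured on a Biotin CAPture chip at ~100–300 RU; single-cycle kinetics at 30°C, 100 µL/min, 75 s injections of rising compound concentrations. HBS pH 7.4 running buffer with 1 mM DTT, 10 mM MgCl2, 10 µM GDP, 4% DMSO. KD from 1:1 binding fit.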

[5] = ratio of KD for GDP-bound NRAS wild-type protein to KD for KRAS
[6] = ratio of KD for HRAS wild-type protein to KD for KRAS
[7] = ratio of KD with respect to GDP-bound NRAS wild-type protein to KD with respect to KRAS
[8] = ratio of KD with respect to HRAS wild-type protein to KD with respect to KRAS
[9] = 50% proliferation inhibitory concentration, four days
[10] = Single Cycle Kinetics, 1:1 binding model

HRAS wild-type protein, sequence (P01112 whole entry): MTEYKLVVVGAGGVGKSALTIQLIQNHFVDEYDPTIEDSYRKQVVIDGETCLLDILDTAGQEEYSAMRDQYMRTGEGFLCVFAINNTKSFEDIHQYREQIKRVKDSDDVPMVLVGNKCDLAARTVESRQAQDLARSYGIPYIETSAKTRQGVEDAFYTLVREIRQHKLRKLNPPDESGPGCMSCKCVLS
GDP-bound NRAS wild-type protein, sequence (P01111 whole entry): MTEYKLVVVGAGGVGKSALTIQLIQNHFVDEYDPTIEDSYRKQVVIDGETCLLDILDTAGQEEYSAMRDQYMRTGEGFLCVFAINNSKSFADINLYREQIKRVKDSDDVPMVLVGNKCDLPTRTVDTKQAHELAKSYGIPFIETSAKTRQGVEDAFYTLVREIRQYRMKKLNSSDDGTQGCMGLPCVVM
GDP-bound KRAS wild-type protein, sequence (P01116 1-188 isoform P01116-2): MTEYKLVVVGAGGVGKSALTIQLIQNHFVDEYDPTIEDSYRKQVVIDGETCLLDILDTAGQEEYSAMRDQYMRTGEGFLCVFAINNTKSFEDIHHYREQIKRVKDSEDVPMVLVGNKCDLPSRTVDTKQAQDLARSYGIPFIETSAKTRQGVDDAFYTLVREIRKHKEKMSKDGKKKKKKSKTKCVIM

Row | IC50 ([3]; NCI-H441 cells, 4 days) [nM] | Kd ([4]; Single Cycle Kinetics) [nM] | Kd ([4]; 1:1 binding model) [nM] | IC50 [3, 9] [nM] | Kd [4, 10] [nM] | SMILES | NRAS /KRAS [1, 5] | HRAS /KRAS [2, 6] | NRAS /KRAS [1, 7] | HRAS /KRAS [2, 8]
1 | 3.7 | 0.062 |  |  |  | CCC[C@H]1C(=O)N[C@@H]([C@@H](C)CC)C(=O)N(C)CC(=O)N(C)[C@H]2C/C(F)=C\CCN(C2=O)[C@@H](Cc2ccc(C)cc2)C(=O)N(C)CC(=O)N[C@@H](CCc2cc(F)c(C(F)(F)F)c(F)c2)C(=O)N2C[C@H](OCC)C[C@H]2C(=O)N(C)C2(CCC2)C(=O)N(C)[C@@H](C2CCCC2)C(=O)N(C)[C@H](C(=O)N(C)C)CC(=O)N1C [PP3528] | B (a compound having 3 or more and less than 10 is denoted as B) | B (a compound having 3 or more and less than 10 is denoted as B) |  | 
2 | 4.1 | 0.12 |  |  |  | C#CC[C@H]1C(=O)N[C@@H]([C@@H](C)CC)C(=O)N(C2CC2)CC(=O)N(C)[C@H]2C/C=C\CCN(C2=O)[C@@H](Cc2ccc(C)cc2)C(=O)N(C)CC(=O)N[C@@H](CCc2ccc(C(F)(F)F)c(Cl)c2)C(=O)N2C[C@H](OCC)C[C@H]2C(=O)N(C)C2(CCC2)C(=O)N(C)[C@@H](C2CCCC2)C(=O)N(C)[C@H](C(=O)N(C)C)CC(=O)N1C [PP3251] | B (a compound having 3 or more and less than 10 is denoted as B) | B (a compound having 3 or more and less than 10 is denoted as B) |  | 
3 | 55.4 | 1.4 |  |  |  | CCO[C@@H]1C[C@H]2C(=O)NC3(CCCC3)C(=O)N(C)[C@@H](C3CCC3)C(=O)N(C)[C@H](C(=O)N(C)C)CC(=O)N(C)[C@@H](CC(C)C)C(=O)N[C@@H]([C@@H](C)CC)C(=O)N(C)CC(=O)N(C)[C@H]3C/C(F)=C\CCN(C3=O)[C@@H](Cc3ccc(C(F)(F)F)cc3)C(=O)N(C)CC(=O)N[C@@H](CCc3cc(F)c(C(F)(F)F)c(F)c3)C(=O)N2C1 [PP3516] | B (a compound having 3 or more and less than 10 is denoted as B) | B (a compound having 3 or more and less than 10 is denoted as B) |  | 
4 | 4.1 |  | 0.069 |  |  | CCO[C@@H]1C[C@H]2C(=O)NC3(CC(C)(C)C3)C(=O)N(C)[C@@H](C3CCCC3)C(=O)N(C)[C@H](C(=O)N(C)CC)CC(=O)N(C)[C@@H](COC)C(=O)N[C@@H]([C@@H](C)CC)C(=O)N(C)CC(=O)N(C)[C@H]3C/C=C\CCN(C3=O)[C@@H](Cc3ccc(C)cc3)C(=O)N(C)CC(=O)N[C@@H](CCc3cc(F)c(C(F)(F)F)c(F)c3)C(=O)N2C1 [PP2396] | A (a compound having 10 or more and less than 20 is denoted as A) | A (a compound having 10 or more and less than 20 is denoted as A) |  | 
5 |  |  |  | 31.4 | 0.35 | CCO[C@@H]1C[C@H]2C(=O)NC3(CCC3)C(=O)N(C)[C@@H](C3CCCC3)C(=O)N(C)[C@H](C(=O)N3CCOCC3)CC(=O)N(C)[C@@H](CC3CCCCC3)C(=O)N[C@@H]([C@@H](C)CC)C(=O)N(C)CC(=O)N(C)[C@H]3C/C=C\CCN(C3=O)[C@@H](Cc3ccc(C)cc3)C(=O)N(C)CC(=O)N[C@@H](CCc3cc(F)c(C(F)(F)F)c(F)c3)C(=O)N2C1 [PP1420] |  |  | A (a compound having 10 or more and less than 20 is denoted as A) | A (a compound having 10 or more and less than 20 is denoted as A)
6 | 176 |  | 1.5 |  |  | CCOC[C@H]1C(=O)N[C@@H]([C@@H](C)CC)C(=O)N(C)CC(=O)N(C)[C@H]2C/C=C\CCN(C2=O)[C@@H](CC2CCC(F)(F)CC2)C(=O)N(C)CC(=O)N[C@@H](CCc2ccc(C(F)(F)F)c(Cl)c2)C(=O)N2C[C@@H](C)C[C@H]2C(=O)NC2(CC(C)(C)C2)C(=O)N(C)[C@@H](C(CC)CC)C(=O)N(C)[C@H](C(=O)N(C)C)CC(=O)N1C [PP2475] | AA (a compound having 20 or more is denoted as AA) | A (a compound having 10 or more and less than 20 is denoted as A) |  | 
7 | 180 |  | 3.9 |  |  | CCC[C@H]1C(=O)N[C@@H](CC(C)C)C(=O)N(C2CC2)CC(=O)N(C)[C@H]2C/C=C\CCN(C2=O)[C@@H](Cc2ccc(C)cc2)C(=O)N(C)CC(=O)N[C@@H](CCc2ccc(C(F)(F)F)c(OC)c2)C(=O)N2C[C@H](OCC)C[C@H]2C(=O)NC2(CC(C)(C)C2)C(=O)N(C)[C@@H](C2CCCC2)C(=O)N(C)[C@H](C(=O)N(C)C)CC(=O)N1C [PP2510] | A (a compound having 10 or more and less than 20 is denoted as A) | B (a compound having 3 or more and less than 10 is denoted as B) |  | 
8 | 10.1 | 0.31 |  |  |  | CCC[C@H]1C(=O)N[C@@H]([C@@H](C)CC)C(=O)N(C)CC(=O)N(C)[C@H]2C/C=C\CCN(C2=O)[C@@H](Cc2ccc(C(F)(F)F)cc2)C(=O)N(C)CC(=O)N[C@@H](CCc2cc(F)c(C(F)(F)F)c(F)c2)C(=O)N2CC3(CC3)C[C@H]2C(=O)NC2(CCC2)C(=O)N(C)[C@@H](C(CC)CC)C(=O)N(C)[C@H](C(=O)N(C)C)CC(=O)N1C [PP3402] | AA (a compound having 20 or more is denoted as AA) | B (a compound having 3 or more and less than 10 is denoted as B) |  | 
9 | 11.5 | 0.64 |  |  |  | CCO[C@@H]1C[C@H]2C(=O)OC3(CCC3)C(=O)N(C)[C@@H](C3CCCC3)C(=O)N(C)[C@H](C(=O)N(C)C)CC(=O)N(C)[C@@H]([C@@H](C)OC)C(=O)N[C@@H]([C@@H](C)CC)C(=O)N3CCC[C@H]3C(=O)N(C)[C@H]3C/C=C\CCN(C3=O)[C@@H](Cc3ccc(C)cc3)C(=O)N(C)CC(=O)N[C@@H](CCc3ccc(C(F)(F)F)c(OC)c3)C(=O)N2C1 [PP3392] | A (a compound having 10 or more and less than 20 is denoted as A) | B (a compound having 3 or more and less than 10 is denoted as B) |  | 
10 | 8.9 | 0.062 |  |  |  | CCC[C@H]1C(=O)N[C@@H]([C@@H](C)CC)C(=O)N(C)CC(=O)N(C)[C@H]2C/C=C\CCN(C2=O)[C@@H](Cc2ccc(C(F)(F)F)cc2)C(=O)N(C)CC(=O)N[C@@H](CCc2ccc(C(F)(F)F)c(OC)c2)C(=O)N2CC3(CC3)C[C@H]2C(=O)NC2(CCC2)C(=O)N(C)[C@@H](C2CCCC2)C(=O)N(C)[C@H](C(=O)N(C)C)CC(=O)N1C [PP3438] | A (a compound having 10 or more and less than 20 is denoted as A) | A (a compound having 10 or more and less than 20 is denoted as A) |  | 
11 |  |  |  | 2.3 | 0.057 | CCO[C@@H]1C[C@H]2C(=O)NC3(CCCC3)C(=O)N(C)[C@@H](C3CCCC3)C(=O)N(C)[C@H](C(=O)N(C)C)CC(=O)N(C)[C@@H](CC)C(=O)N[C@@H]([C@@H](C)CC)C(=O)N(C)CC(=O)N(C)[C@H]3CC[C@@H](C)CN(C3=O)[C@@H](Cc3ccc(C(F)(F)F)cc3)C(=O)N(C)CC(=O)N[C@@H](CCc3cc(F)c(C(F)(F)F)c(F)c3)C(=O)N2C1 [PP1370] |  |  | C (A compound having a KD ratio of 0.1 or more and less than 3 is denoted as C) | C (A compound having a KD ratio of 0.1 or more and less than 3 is denoted as C)
12 | 2.3 |  | 0.076 |  |  | CCC[C@H]1C(=O)N[C@@H]([C@@H](C)CC)C(=O)N(C)CC(=O)N(C)[C@H]2C/C=C\CCN(C2=O)[C@@H](Cc2ccc(C)cc2)C(=O)N(C)CC(=O)N[C@@H](CCc2cc(F)c(C(F)(F)F)c(F)c2)C(=O)N2C[C@H](OCC)C[C@H]2C(=O)NC2(CC(C)(C)C2)C(=O)N(C)[C@@H](CC(C)(C)C)C(=O)N(C)[C@H](C(=O)N(C)C)CC(=O)N1C [PP2706] | A (a compound having 10 or more and less than 20 is denoted as A) | B (a compound having 3 or more and less than 10 is denoted as B) |  | 
13 |  |  |  | 33.7 | 0.063 | CCO[C@@H]1C[C@H]2C(=O)NC3(CCC3)C(=O)N(C)[C@@H](C3CCCC3)C(=O)N(C)[C@H](C(=O)N(C)C)CC(=O)N(C)[C@@H](Cc3cccc(C#N)c3)C(=O)N[C@@H]([C@@H](C)CC)C(=O)N(C)CC(=O)N(C)[C@H]3CCCCCN(C3=O)[C@@H](Cc3ccc(F)cc3)C(=O)N(C)CC(=O)N[C@@H](CCc3cc(F)c(C(F)(F)F)c(F)c3)C(=O)N2C1 [PP1156] |  |  | B (a compound having 3 or more and less than 10 is denoted as B) | B (a compound having 3 or more and less than 10 is denoted as B)
14 | 7.6 |  | 0.02 |  |  | CCOC[C@H]1C(=O)N[C@@H]([C@@H](C)CC)C(=O)N(C)CC(=O)N(C)[C@H]2C/C=C\CCN(C2=O)[C@@H](Cc2ccc(C(F)(F)F)cc2)C(=O)N(C)CC(=O)N[C@@H](CCc2ccc(C(F)(F)F)c(OC)c2)C(=O)N2C[C@@H](C)C[C@H]2C(=O)N(C)C2(CCC2)C(=O)N(C)[C@@H](C2CCCC2)C(=O)N(C)[C@H](C(=O)N(C)C)CC(=O)N1C [PP2359] | A (a compound having 10 or more and less than 20 is denoted as A) | B (a compound having 3 or more and less than 10 is denoted as B) |  | 
15 | 11.7 | 0.51 |  |  |  | CCC[C@H]1C(=O)N[C@@H]([C@@H](C)CC)C(=O)N(C2CC2)CC(=O)N(C)[C@H]2C/C=C\CCN(C2=O)[C@@H](Cc2ccc(C)cc2)C(=O)N(C)CC(=O)N[C@@H](CCc2cc(F)c(C(F)(F)F)c(F)c2)C(=O)N2C[C@H](OCC)C[C@H]2C(=O)NC2(CCCC2)C(=O)N(C)[C@@H](C2CCCC2)C(=O)N(C)[C@H](C(=O)N(C)C)CC(=O)N1C [PP3479] | A (a compound having 10 or more and less than 20 is denoted as A) | A (a compound having 10 or more and less than 20 is denoted as A) |  | 
